# Results as given in ChEMBL document CHEMBL1129997 (J Med Chem, 1997).
# System: T78-1
# Test: Cytotoxicity in T78-1 (NR-negative) cell lines
# Assay type: functional, cell-based
# Conditions: Cricetulus griseus
row,Structure (SMILES),IC50
1,O=C(NCC(O)CO)c1cc([N+](=O)[O-])cc([N+](=O)[O-])c1N(CCCl)CCCl (stereo not drawn),919 µM
2,NC(=O)c1cc(N(CCBr)CCBr)c([N+](=O)[O-])cc1[N+](=O)[O-],633 µM
3,NC(=O)c1cc([N+](=O)[O-])cc([N+](=O)[O-])c1N(CCI)CCI,58 µM
4,O=C(NCC(O)CO)c1cc(N(CCI)CCI)c([N+](=O)[O-])cc1[N+](=O)[O-] (stereo not drawn),793 µM
5,NC(=O)c1cc(N(CCCl)CCCl)c([N+](=O)[O-])cc1[N+](=O)[O-],895 µM
6,CN(C)CCNC(=O)c1c([N+](=O)[O-])ccc(N(CCCl)CCCl)c1[N+](=O)[O-],722 µM
7,O=C(NCC(O)CO)c1cc(N(CCCl)CCCl)c([N+](=O)[O-])cc1[N+](=O)[O-] (stereo not drawn),> 5000 µM
8,O=C(NCC(O)CO)c1cc([N+](=O)[O-])cc([N+](=O)[O-])c1N(CCI)CCI (stereo not drawn),86 µM
9,NC(=O)c1cc([N+](=O)[O-])cc([N+](=O)[O-])c1N(CCCl)CCCl,> 1000 µM
10,CS(=O)(=O)CCN(CCCl)c1cc(C(N)=O)c([N+](=O)[O-])cc1[N+](=O)[O-],> 1000 µM
11,NC(=O)c1cc(N(CCI)CCI)c([N+](=O)[O-])cc1[N+](=O)[O-],71 µM
12,CS(=O)(=O)CCN(CCS(C)(=O)=O)c1cc(C(N)=O)c([N+](=O)[O-])cc1[N+](=O)[O-],> 1000 µM
13,NC(=O)c1cc(N2CC2)c([N+](=O)[O-])cc1[N+](=O)[O-] [TRETAZICAR],158 µM
14,CS(=O)(=O)c1cc([N+](=O)[O-])c(C(N)=O)cc1N(CCCl)CCCl,> 1000 µM
15,NC(=O)c1cc([N+](=O)[O-])cc([N+](=O)[O-])c1N(CCBr)CCBr,17.5 µM
16,NC(=O)c1c([N+](=O)[O-])ccc(N(CCCl)CCCl)c1[N+](=O)[O-],> 1000 µM

# System: T78-1/T79-A3
# Test: TE50 is termed as Bystander effect evaluated in T78-1 and T79-A3 cell lines
# Assay type: functional, Cricetulus griseus
# Parameters: unit not given beside the values
# Conditions: not given
row,Structure (SMILES),TE50
1,O=C(NCC(O)CO)c1cc([N+](=O)[O-])cc([N+](=O)[O-])c1N(CCCl)CCCl (stereo not drawn),12
2,NC(=O)c1cc(N(CCBr)CCBr)c([N+](=O)[O-])cc1[N+](=O)[O-],0.1
3,NC(=O)c1cc([N+](=O)[O-])cc([N+](=O)[O-])c1N(CCI)CCI,0.4
4,O=C(NCC(O)CO)c1cc(N(CCI)CCI)c([N+](=O)[O-])cc1[N+](=O)[O-] (stereo not drawn),0.45
5,NC(=O)c1cc(N(CCCl)CCCl)c([N+](=O)[O-])cc1[N+](=O)[O-],3.7
6,O=C(NCC(O)CO)c1cc([N+](=O)[O-])cc([N+](=O)[O-])c1N(CCI)CCI (stereo not drawn),7
7,NC(=O)c1cc(N(CCI)CCI)c([N+](=O)[O-])cc1[N+](=O)[O-],0.3
8,NC(=O)c1cc(N2CC2)c([N+](=O)[O-])cc1[N+](=O)[O-] [TRETAZICAR],1
9,NC(=O)c1cc([N+](=O)[O-])cc([N+](=O)[O-])c1N(CCBr)CCBr,0.22

# Target: T1, Modulator of drug activity A (Escherichia coli O157:H7) (UniProt Q8X6S1)
# T1 sequence (whole entry): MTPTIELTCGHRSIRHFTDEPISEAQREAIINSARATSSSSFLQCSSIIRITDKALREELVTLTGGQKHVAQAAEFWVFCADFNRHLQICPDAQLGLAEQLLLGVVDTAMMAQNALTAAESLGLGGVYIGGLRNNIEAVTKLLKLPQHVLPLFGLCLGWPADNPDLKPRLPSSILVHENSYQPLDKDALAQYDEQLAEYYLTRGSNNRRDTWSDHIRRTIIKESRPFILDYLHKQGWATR
# Test: IC50 ratio for NR-positive and NR-negative cell lines
# Assay type: functional
# Conditions: not given
row,Structure (SMILES),Ratio
1,NC(=O)c1cc(N(CCBr)CCBr)c([N+](=O)[O-])cc1[N+](=O)[O-],2530
2,NC(=O)c1cc(N(CCCl)CCCl)c([N+](=O)[O-])cc1[N+](=O)[O-],63
3,CN(C)CCNC(=O)c1c([N+](=O)[O-])ccc(N(CCCl)CCCl)c1[N+](=O)[O-],0.8
4,O=C(NCC(O)CO)c1cc(N(CCCl)CCCl)c([N+](=O)[O-])cc1[N+](=O)[O-] (stereo not drawn),> 55
5,O=C(NCC(O)CO)c1cc([N+](=O)[O-])cc([N+](=O)[O-])c1N(CCI)CCI (stereo not drawn),21.5
6,NC(=O)c1cc([N+](=O)[O-])cc([N+](=O)[O-])c1N(CCCl)CCCl,> 133
7,NC(=O)c1cc(N(CCI)CCI)c([N+](=O)[O-])cc1[N+](=O)[O-],494
8,CS(=O)(=O)c1cc([N+](=O)[O-])c(C(N)=O)cc1N(CCCl)CCCl,> 17
